Patent publication US20220304958A1, “SMALL MOLECULE INHIBITORS OF A PROTEIN COMPLEX” (THE REGENTS OF THE UNIVERSITY OF CALIFORNIA, priority 2019, published 2022)
Where two headings read alike, the source gives them in different places. One block for each compound: values may come before it.

Assays:
[1] = test system: KLF4 and KLF2 mRNA; assay: KLF4 and KLF2 mRNA expression in hCMEC/D3 cells by qPCR; type: cell-based, human
Method: (§1) Cell culture. hCMEC/D3 cells at passages 30-37 were grown to confluence on collagen-coated plates and cultured using in EGM-2 MV medium and supplemented with complements obtained from the manufacturer (Lonza) as previously reported (31). HUVEC (Lonza) at passages 4-7 were grown to confluence on gelatin-coated plates and maintained using complete EGM-2 media (Lonza). HKi2, 10 mM in DMSO, was maintained at room temperature for 30 min rotating before use. Cells were then treated with HKi2 at the concentrations and times indicated for each experiment. Vehicle cells were treated with the same volume of DMSO as used with HKi2. Cells were maintained at 37° C. in 95% air and 5% CO2. RNA extraction and qRT-PCR. HUVECs total RNA were isolated using MagMAXTM-96 for Microarrays Total RNA Isolation Kit, according to the manufacturer's protocol (Thermo Fisher Scientific Cat #AM1839). qPCR analysis, single-stranded cDNA was produced from 10 ng RNA isolated from HUVECs using PrimeScriptTM RT Master Mix according to the manufacturer's protocol (Takara Cat. #R[…]). The levels of genes were analyzed using iTaqTM Universal SYBR Green (BioRad Cat #1725122) and thermal cycler (CFX96 Real-Time System; Bio-Rad) according to the manufacturer's protocol. Actin mRNA levels was used as internal control, and the 2^-ΔΔCT method was used for data analysis.

[2] = Aqueous solubility in assay buffer; type: physicochemical
[3] = test system: KLF4 and KLF2 mRNA; assay: KLF4 and KLF2 mRNA expression in HUVEC by qPCR; type: cell-based, human; settings: dose response, 24 hours
Method: as §1

[4] = test system: PARD3 binding to HEG1; assay: PARD3 pulldown assay with HEG1 matrix; set-up: species or system human (HUVEC lysates); settings: 35 μM compound, HUVEC lysates, HEG1 WT matrix
Method: PARD3 pulldown assay. Neutravidin agarose beads (Thermo Fisher) matrix with wild-type HEG1 cytoplasmic tail (1274-1381) and ΔYF (1274-1379) were previously described (5, 26). HUVEC were collected in cold lysis buffer (50 mM Tris-HCl, pH 7.4, 100 mM NaCl, 5 mM MgCl2, 0.5% NP-40) plus protease inhibitor cocktail (Roche). A total of 20 μl of HEG1 matrix was added to 600 μg of clarified lysates and incubated at 4° C. overnight while rotating. All conditions contained either vehicle DMSO, 35 μM HKi2 or 35 μM 2-hydroxy-1-naphthoic acid. After three washes with cold lysis buffer, beads were mixed with sample buffer and proteins were separated by SDS-PAGE. Bound PARD3 was detected by using polyclonal Rabbit anti-PARD3 (Millipore, 07-330) antibody.

[5] = test system: HUVEC; assay: Genome-wide RNA sequencing of HUVEC; type: cell-based, human; settings: for effects on gene expression by RNA-Seq: same conditions (75 μM, 24 h)
Method: Cell culture. hCMEC/D3 cells at passages 30-37 were grown to confluence on collagen-coated plates and cultured using in EGM-2 MV medium and supplemented with complements obtained from the manufacturer (Lonza) as previously reported (31). HUVEC (Lonza) at passages 4-7 were grown to confluence on gelatin-coated plates and maintained using complete EGM-2 media (Lonza). HKi2, 10 mM in DMSO, was maintained at room temperature for 30 min rotating before use. Cells were then treated with HKi2 at the concentrations and times indicated for each experiment. Vehicle cells were treated with the same volume of DMSO as used with HKi2. Cells were maintained at 37° C. in 95% air and 5% CO2. Genome-wide RNA sequencing. The quantity (ND-1000 spectrophotometer; NanoDrop Technologies) and quality (Bioanalyzer; Agilent) of total RNA were analyzed. Only RNA with a RNA integrity number (RIN) greater than 8 RNA was used for library preparation. Libraries were generated using Illumina's TruSeq Stranded mRNA Sample Prep kit using 400 ng RNA. RNA libraries were multiplexed and sequenced with 100-bp […] single-end reads (SR100) to a depth of 30 million reads per sample on an Illumina HiSeq2500. Fastq files from RNA-seq experiments were mapped to the human genome (GRCh primary assembly release 96) using Hisat2 with default parameters. All bioinformatics analyses were conducted in R using the […] package RNAseq workflows. Differential gene expression analysis was conducted with EdgeR.

[6] = test system: PI3K/Akt signaling; assay: PI3K/Akt signaling in hCMEC/D3 cells by Western blot; type: cell-based, human; settings: hCMEC/D3, 50 μM, 1 h
Method: Cell culture. hCMEC/D3 cells at passages 30-37 were grown to confluence on collagen-coated plates and cultured using in EGM-2 MV medium and supplemented with complements obtained from the manufacturer (Lonza) as previously reported (31). HUVEC (Lonza) at passages 4-7 were grown to confluence on gelatin-coated plates and maintained using complete EGM-2 media (Lonza). HKi2, 10 mM in DMSO, was maintained at room temperature for 30 min rotating before use. Cells were then treated with HKi2 at the concentrations and times indicated for each experiment. Vehicle cells were treated with the same volume of DMSO as used with HKi2. Cells were maintained at 37° C. in 95% air and 5% CO2. Western blotting and immunoprecipitation. […] Cell lysates were spun at 20,000×g for 15 minutes at 4° C. The PI3 Kinase was immunoprecipitated using the mouse monoclonal antibody as described in the manufacturer instructions and supernatants were stored at -80° C. Samples were resolved on 4-12% gradient gel and blotted using specific antibodies, as indicated. Band intensity was determined using a Li-Cor system and values obtained for phosphoproteins were normalized to the total protein in the same sample. Antibodies to phospho-Akt-Ser473 (clone: 193H12; rabbit mAb; #4058; 1:250), Akt (clone: 40D4; mouse mAb; #2920; 1:500), phospho-PI3 Kinase p85 […] (rabbit polyclonal; #4228; 1:500) were from Cell Signaling. […]

[7] = test system: klf2a; assay: klf2a reporter Tg(klf2a:H2B-EGFP) zebrafish embryos; type: in vivo; settings: 4 μM, 4 h, added at 26 hpf, imaged at 30 hpf
Source text: Zebrafish. A previously reported transgenic zebrafish line Tg(klf2a:H2B-EGFP) was used to monitor the expression of klf2a (32, 33). […] At 30 hpf, these treated embryos were scanned for EGFP expression by Zeiss LSM 880 Airiscan.

[8] = target: T1, HEG1-KRIT1 interaction (Homo sapiens, UniProt O00522); assay: Flow cytometry assay for the HEG1-KRIT1 FERM domain interaction (competition binding on HEG1 matrix beads); settings: read-out: IC50
T1 construct: His6-EGFP-KRIT1 (WT) FERM domain (417-736) and KRIT1 (L717,721A) mutant were cloned into pETM-11; His6 (N); made in house; host or cells: E. coli BL21 Star (DE3)
T1 sequence (O00522 417-736): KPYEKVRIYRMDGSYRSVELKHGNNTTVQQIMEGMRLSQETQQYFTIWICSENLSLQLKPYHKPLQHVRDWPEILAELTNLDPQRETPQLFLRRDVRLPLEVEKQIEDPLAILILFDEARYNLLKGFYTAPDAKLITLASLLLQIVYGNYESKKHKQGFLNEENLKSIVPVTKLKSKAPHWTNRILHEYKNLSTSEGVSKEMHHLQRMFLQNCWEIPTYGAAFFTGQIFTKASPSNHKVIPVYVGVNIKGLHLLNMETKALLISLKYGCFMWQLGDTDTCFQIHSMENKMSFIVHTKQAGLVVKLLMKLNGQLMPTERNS
Method: Bead Coupling. SPHERO Neutravidin Polystyrene Particles, […] (Spherotech) were washed twice with wash buffer (20 mM Tris, 150 mM NaCl. pH 7.4 containing 0.01% NP-40, and 1 mM EDTA). Prior to incubation with biotin-tagged HEG 1 cytoplasmic tail protein, an appropriate volume of bead slurry was passivated to inhibit non-specific binding by incubation for 30 minutes at room temperature in reaction buffer containing 0.1% BSA (20 mM Tris, 150 mM NaCl, pH 7.4 0.01% NP-40, 1 mM EDTA, 1 mM DTT, and 0.1% BSA). Passivated beads were collected by centrifugation, resuspended to 3,600 particles/μl in reaction buffer and biotinylated HEG1 tail was added to a final concentration of 150 nM and incubated overnight on a rotator at 4° C. The beads were washed three times by centrifugation with ice-cold reaction buffer to remove unbound HEG1 peptide. Beads were diluted such that a final concentration of 2000 beads/μL were available for addition to assay plates.
Flow cytometry assay. A final volume of 100 μl containing 140 nM EGFP-KRIT1 FERM domain, with 10% DMSO or 10% compounds in DMSO, was incubated for 15 minutes at room temperature on a rotator. 100 μl of beads were added to the mixture for a final volume of 200 μl at 1,000 particles/μl with 70 nM EGFP-KRIT1 and incubated for 15 minutes at room temperature on a rotator. The control beads were: without KRIT1 (minimum signal); with KRIT1 (maximum signal); and with KRIT1 plus 2 μM HEG1 7-mer (positive blocking control). The EGFP fluorescence was measured using a BD Accuri flow cytometer. For screening purposes, the final volume of the reaction was scaled down to 10 μl and samples were processed as previously described (27). For FIGS. 1D-1F, 2B, and 3E, a representative experiment is shown of at the least 3 independent repeats.
Assay plate assembly. Plate assays were performed in 384-well microtiter plates (Greiner Bio-one, #784101). Reaction buffer. HEG1-coupled beads, and EGFP-KRIT-FERM constructs were added using a MultiFlo™ Microplate Dispenser (BioTek Instruments, Inc.). Compounds were added to single-point assay plates pre-loaded with reaction buffer using a Biomek^NX liquid handler (BeckmanCoulter) equipped with a […] pintool (V & P Scientific, Inc.). Compound libraries were dispensed to a final concentration of 10 μM. An equal volume (10 nL) of DMSO was added to the vehicle control wells. Following the addition of library compounds, 5 μL of assay buffer was added and the plates were mixed before addition of 5 μL of the protein-coupled bead mixtures; Plates were protected from light and incubated on a rotator for 15 minutes at room temperature. Binding of EGFP-KRIT to HEG1 coupled beads was evaluated using an Accuri C6 flow cytometer.
Data Acquisition. Assay plates were sampled using the HyperCyt™ high throughput flow cytometry platform (Intellicyt; Albuquerque, N. Mex.). During sampling, the probe moves from well to well and samples 1-2 μL from each well pausing 0.4 sec in the air before sampling the next well. The resulting sample stream consisting of 384 separated samples is delivered to an Accuri C6 flow cytometer (BD Biosciences; San Jose, Calif.). Plate data are acquired as time-resolved files that are parsed by software-based well identification algorithms and merged with compound library files. Plate performance was validated using the Z-prime calculation (28).
Compounds that satisfied hit selection criteria in the primary screen were cherry-picked from compound storage plates and tested to confirm activity and determine potency. Dose response data points were fitted by Prism software (GraphPad Software Inc., San Diego, Calif.) using nonlinear least-squares regression in a sigmoidal dose-response model with variable slope, also known as the 4-parameter logistic equation.

[9] = log P; type: physicochemical; settings: method not stated (FIG. 2A)
[10] = Table 2, flow cytometry-screening assay, NI = no inhibition detected up to 500 μM

solubility in aqueous solution ([2]; qualitative, compared with HKi1): largely improved
PARD3 binding to HEG1 [4]: no effects
Structure (SMILES): O=Cc1c(O)ccc2ccccc12 [2-hydroxy-1-naphtaldehyde (Hki2), 2-hydroxy-1-naphthaldehyde]
KLF4 and KLF2 mRNA levels ([1]; hCMEC/D3, 25 μM, 12 h): upregulated
KLF2 upregulation, fold increase ([1]; hCMEC/D3, 50 μM, 4 h): ~1.5 fold
KLF4 upregulation, fold increase ([1]; hCMEC/D3, 50 μM, 4 h): ~3.5 fold
KLF2 mRNA levels, fold increase ([1]; hCMEC/D3, 50 μM, 12 h): ~2.3 fold
KLF4 mRNA levels, fold increase ([1]; hCMEC/D3, 50 μM, 12 h): ~6.5 fold
KLF4 levels, fold increase ([1]; hCMEC/D3, 50 μM, 24 h): ~6 fold
KLF4 and KLF2 mRNA levels [3]: upregulated
VEGFA gene expression ([5]; 75 μM, 24 h, RNA-seq): upregulation
genes differentially expressed between treatment and vehicle control ([5]; 75 μM, 24 h, corrected P<0.05, ≥2.5-fold change): 457 genes
CCL2 (Monocyte chemoattractant protein) expression, ratio experimental/control FPKM ([5]; 75 μM, RNA-Seq, n=3): −7.95
CXCR4 (C-X-C chemokine receptor type 4) expression, ratio experimental/control FPKM ([5]; 75 μM, RNA-Seq, n=3): −4.41
KLF2 expression, ratio experimental/control FPKM ([5]; 75 μM, RNA-Seq, n=3): 3.07
KLF4 expression, ratio experimental/control FPKM ([5]; 75 μM, RNA-Seq, n=3): 3.89
THBD (Thrombomodulin) expression, ratio experimental/control FPKM ([5]; 75 μM, RNA-Seq, n=3): 8.34
THBSI (Thrombospondin 1) expression, ratio experimental/control FPKM ([5]; 75 μM, RNA-Seq, n=3): −5.78
increase in Akt activation (pAkt-S473) ([6]; Western blot): 2.2 fold
increase in PI3K activity ([6]; phospho-p85): 2 fold
nuclear EGFP (klf2a reporter) in arterial and venous endothelium [7]: increase

IC50 [8, 10]: > 500 µM
Structure (SMILES): Oc1ccc2ccccc2c1 [Compound 10, naphthalene-2-ol]
effects on gene expression by RNA-Seq [5]: no significant effects

solubility ([2]; assay buffer, aqueous buffer, in the buffer conditions of the assay): < 50 µM
IC50 ([8]; inhibition of the HEG1-KRIT1 interaction, flow cytometry assay): ~10 µM
logP [9]: 5.7
Structure (SMILES): CC(NC(=O)c1ccccc1N=Cc1c(O)ccc2ccccc12)c1ccccc1 (centres unmarked) [Sirtinol (Hki1), 2-[[(2-hydroxy-1-naphthalenyl)methylene]amino]-N-(1-phenylethyl)-benzamide, reference compound]

Structure (SMILES): O=C(O)c1c(O)ccc2ccccc12 [Compound 9, 2-hydroxy-1-naphthoic acid]
KLF4 or KLF2 elevation ([1]; hCMEC/D3, 25 μM, 4 hours): did not elevate
PARD3 binding to HEG1 [4]: no effects
effects on gene expression by RNA-Seq [5]: no significant effects
IC50 [8, 10]: > 500 µM
